The subject of one data set is SK-BR-3. The data set can be described thus: Anticancer activity against human SK-BR-3 cells assessed as cell growth inhibition incubated for 72 hrs by SRB assay. It is filed as functional, cell-based. The conditions noted are these: Homo sapiens, SK-BR-3, 72 h.
In the next data set the test system is SK-OV-3. The data set can be described thus: Anticancer activity against human SK-OV-3 cells assessed as cell growth inhibition incubated for 72 hrs by SRB assay. The conditions noted are these: Homo sapiens, SK-OV-3, 72 h. It is filed as functional, cell-based.
The test system of another data set is PC-3. The data set can be described thus: Anticancer activity against human PC-3 cells assessed as cell growth inhibition incubated for 72 hrs by SRB assay. Type of data set: functional, cell-based. The conditions noted are these: Homo sapiens, PC-3, 72 h.
Data set [1] in a line: Cytotoxicity against human HDF cells assessed as cell growth inhibition incubated for 72 hrs by SRB assay. It is filed as toxicity, cell-based. The conditions noted are these: HDF cells (normal human dermal fibroblasts, NHDF).
Data set [2] concerns the target Heat shock protein HSP 90-alpha (Homo sapiens) (UniProt P07900).
Description: Binding affinity to recombinant human HSP90alpha assessed as change in entropy by isothermal titration calorimetry assay
Data set [3] is described as follows: Selectivity index, ratio of IC50 for cytotoxicity against human HDF cells to IC50 for anticancer activity against human SK-BR-3 cells. Type of data set: toxicity, cell-based. The conditions noted are these: HDF cells versus SK-BR-3 cells, read-out: Ratio IC50.
Data set [4] in a line: Selectivity index, ratio of IC50 for cytotoxicity against human HDF cells to IC50 for anticancer activity against human SK-OV-3 cells. Type of data set: cell-based. Particulars: HDF cells versus SK-OV-3 cells, read-out: Ratio IC50.
Data set [5] in a line: Selectivity index, ratio of IC50 for cytotoxicity against human HDF cells to IC50 for anticancer activity against human PC-3 cells. It is filed as toxicity, cell-based. The conditions noted are these: HDF cells versus PC-3 cells, read-out: Ratio IC50.

Consider `CO[C@H]1/C=C\C=C(/C)C(=O)NC2=CC(=O)C(NCc3cn(Cc4ccc(Cl)cc4)nn3)=C(C[C@@H](C)C[C@H](OC)[C@H](O)[C@@H](C)/C=C(\C)[C@@H]1OC(N)=O)C2=O`, for which the figures for the IC50 in the data set on SK-BR-3, in the data set with SK-OV-3 and in the data set with PC-3 were 240 nM, 230 nM and 230 nM, respectively. The IC50 at 72 h in data set [1] came out at 440 nM. In data set [2], the TdeltaS was -0.86 kcal/mol.

On to `CO[C@H]1/C=C\C=C(/C)C(=O)NC2=CC(=O)C(NCc3cn(Cc4ccc(F)cc4)nn3)=C(C[C@@H](C)C[C@H](OC)[C@H](O)[C@@H](C)/C=C(\C)[C@@H]1OC(N)=O)C2=O`, for which the IC50 in the data set with SK-BR-3 is 1550 nM; with SK-OV-3, 1520 nM; in the data set with PC-3 it was 1580 nM. In addition, the IC50 at 72 h in data set [1] was found to be 1690 nM. Further, the selectivity ratio in data set [3] turned out to be 1.09; in data set [4] it was 1.11; in data set [5], 1.07.

Consider `COC(=O)C[C@H]1O[C@@H](n2cc(CNC3=C4C[C@@H](C)C[C@H](OC)[C@H](O)[C@@H](C)/C=C(\C)[C@H](OC(N)=O)[C@@H](OC)/C=C\C=C(/C)C(=O)NC(=CC3=O)C4=O)nn2)[C@H](O)[C@@H](O)[C@@H]1O`, for which the IC50 with SK-BR-3 worked out at 1410 nM; in the data set on SK-OV-3, 1470 nM; with PC-3 it was 1330 nM. Also, the half-inhibitory concentration (IC50) at 72 h in data set [1] was determined as 2190 nM. The selectivity ratio in data set [3] stood at 1.55; in data set [4], 1.49; in data set [5] it was 1.65.

On to `CO[C@H]1/C=C\C=C(/C)C(=O)NC2=CC(=O)C(NCc3cn(Cc4ccccc4I)nn3)=C(C[C@@H](C)C[C@H](OC)[C@H](O)[C@@H](C)/C=C(\C)[C@@H]1OC(N)=O)C2=O`, for which the results for the IC50 in the data set on SK-BR-3, with SK-OV-3 and in the data set on PC-3 were 380 nM, 390 nM and 410 nM, respectively. The IC50 at 72 h in data set [1] stood at 970 nM. Moreover, the selectivity ratio in data set [3] stood at 2.55; in data set [4] it was 2.49; in data set [5] it was 2.37.

With `CO[C@H]1/C=C\C=C(/C)C(=O)NC2=CC(=O)C(NCCn3cc(C(=O)O)nn3)=C(C[C@@H](C)C[C@H](OC)[C@H](O)[C@@H](C)/C=C(\C)[C@@H]1OC(N)=O)C2=O`, the IC50 in the data set with SK-BR-3 is 810 nM; with SK-OV-3 it was 870 nM; in the data set on PC-3, 870 nM. In addition, the IC50 at 72 h in data set [1] worked out at 1790 nM. The selectivity ratio in data set [3] worked out at 2.21; in data set [4], 2.06; in data set [5] it was 2.06.

On to `CO[C@H]1/C=C\C=C(/C)C(=O)NC2=CC(=O)C(NCCn3cc(-c4ccsc4)nn3)=C(C[C@@H](C)C[C@H](OC)[C@H](O)[C@@H](C)/C=C(\C)[C@@H]1OC(N)=O)C2=O`, for which the IC50 with SK-BR-3 was found to be 930 nM; in the data set with SK-OV-3, 940 nM; in the data set on PC-3 it was 990 nM. Besides, the half-inhibitory concentration (IC50) at 72 h in data set [1] turned out to be 2070 nM. Besides, the results for the selectivity ratio in data set [3], in data set [4] and in data set [5] were 2.23, 2.2 and 2.09, respectively.

Take `CCN(CC)CCn1cc(CNC2=C3C[C@@H](C)C[C@H](OC)[C@H](O)[C@@H](C)/C=C(\C)[C@H](OC(N)=O)[C@@H](OC)/C=C\C=C(/C)C(=O)NC(=CC2=O)C3=O)nn1`: the results for the IC50 in the data set with SK-BR-3, in the data set with SK-OV-3 and in the data set with PC-3 were 590 nM, 520 nM and 510 nM, respectively. The IC50 at 72 h in data set [1] amounted to 960 nM. Also, the selectivity ratio worked out at 1.63 in data set [3], 1.85 in data set [4] and 1.88 in data set [5].

`CO[C@H]1/C=C\C=C(/C)C(=O)NC2=CC(=O)C(NCc3cn(CC4OCCO4)nn3)=C(C[C@@H](C)C[C@H](OC)[C@H](O)[C@@H](C)/C=C(\C)[C@@H]1OC(N)=O)C2=O`: the IC50 in the data set with SK-BR-3 came to 1790 nM; with SK-OV-3, 1730 nM; in the data set with PC-3 it was 1770 nM. The IC50 at 72 h in data set [1] turned out to be 3060 nM. Further, the selectivity ratio is 1.71 in data set [3], 1.77 in data set [4] and 1.73 in data set [5].

For the compound `CO[C@H]1/C=C\C=C(/C)C(=O)NC2=CC(=O)C(NCc3cn([C@@H]4O[C@H](CO)[C@@H](O[C@@H]5O[C@H](CO)[C@H](O)[C@H](O)[C@H]5O)[C@H](O)[C@H]4O)nn3)=C(C[C@@H](C)C[C@H](OC)[C@H](O)[C@@H](C)/C=C(\C)[C@@H]1OC(N)=O)C2=O`, the IC50 in the data set on SK-BR-3 is 2850 nM; in the data set with SK-OV-3, 2840 nM; in the data set on PC-3, 2830 nM. In addition, the IC50 at 72 h in data set [1] worked out at 4110 nM. In addition, the selectivity ratio in data set [3] is 1.44; in data set [4], 1.45; in data set [5], 1.45.

With `C#CCNC1=C2C[C@@H](C)C[C@H](OC)[C@H](O)[C@@H](C)/C=C(\C)[C@H](OC(N)=O)[C@@H](OC)/C=C\C=C(/C)C(=O)NC(=CC1=O)C2=O`, the IC50 was 4010 nM in the data set on SK-BR-3, 4230 nM with SK-OV-3 and 4090 nM in the data set on PC-3. The IC50 at 72 h in data set [1] stood at 7360 nM. Moreover, the selectivity ratio was found to be 1.84 in data set [3], 1.74 in data set [4] and 1.8 in data set [5].

As to `CO[C@H]1/C=C\C=C(/C)C(=O)NC2=CC(=O)C(NCc3cn(CC4CCOCC4)nn3)=C(C[C@@H](C)C[C@H](OC)[C@H](O)[C@@H](C)/C=C(\C)[C@@H]1OC(N)=O)C2=O`, the IC50 with SK-BR-3 was 960 nM; in the data set with SK-OV-3, 920 nM; in the data set with PC-3 it was 970 nM. In data set [1], the IC50 at 72 h is 1840 nM. For the same compound, the selectivity ratio in data set [3] was determined as 1.92; in data set [4], 2; in data set [5] it was 1.9.

Consider `CO[C@H]1/C=C\C=C(/C)C(=O)NC2=CC(=O)C(NCc3cn(Cc4cccc(C#N)c4)nn3)=C(C[C@@H](C)C[C@H](OC)[C@H](O)[C@@H](C)/C=C(\C)[C@@H]1OC(N)=O)C2=O`, for which the IC50 was 4510 nM in the data set on SK-BR-3, 4600 nM in the data set with SK-OV-3 and 4510 nM in the data set on PC-3. Further, the IC50 at 72 h in data set [1] is 7440 nM. Further, the selectivity ratio was determined as 1.65 in data set [3], 1.62 in data set [4] and 1.65 in data set [5].

Turning to `CO[C@H]1/C=C\C=C(/C)C(=O)NC2=CC(=O)C(NCc3cn([C@]4(C#N)O[C@H](COC(C)=O)[C@H](OC(C)=O)[C@H](OC(C)=O)[C@H]4OC(C)=O)nn3)=C(C[C@@H](C)C[C@H](OC)[C@H](O)[C@@H](C)/C=C(\C)[C@@H]1OC(N)=O)C2=O`, the IC50 in the data set with SK-BR-3 came out at 910 nM; with SK-OV-3, 940 nM; with PC-3 it was 760 nM. Further, the IC50 at 72 h in data set [1] is 1250 nM. The selectivity ratio in data set [3] came out at 1.37; in data set [4], 1.33; in data set [5], 1.64.

As to `CO[C@H]1/C=C\C=C(/C)C(=O)NC2=CC(=O)C(NCc3cn(C/C=C/c4ccccc4)nn3)=C(C[C@@H](C)C[C@H](OC)[C@H](O)[C@@H](C)/C=C(\C)[C@@H]1OC(N)=O)C2=O`, the IC50 turned out to be 1160 nM with SK-BR-3, 1080 nM with SK-OV-3 and 1110 nM with PC-3. Also, the IC50 at 72 h in data set [1] was found to be 3380 nM. The compound further showed a TdeltaS in data set [2] of -0.884 kcal/mol.

For the compound `CO[C@H]1/C=C\C=C(/C)C(=O)NC2=CC(=O)C(NCc3cn(Cc4ccc(C(F)(F)F)cc4)nn3)=C(C[C@@H](C)C[C@H](OC)[C@H](O)[C@@H](C)/C=C(\C)[C@@H]1OC(N)=O)C2=O`, the half-inhibitory concentration (IC50) is 790 nM in the data set with SK-BR-3, 910 nM with SK-OV-3 and 800 nM in the data set on PC-3. The IC50 at 72 h in data set [1] stood at 1240 nM. Moreover, the selectivity ratio was found to be 1.57 in data set [3], 1.36 in data set [4] and 1.55 in data set [5].

Take `CO[C@H]1/C=C\C=C(/C)C(=O)NC2=CC(=O)C(NCc3cn(Cc4ccc([N+](=O)[O-])o4)nn3)=C(C[C@@H](C)C[C@H](OC)[C@H](O)[C@@H](C)/C=C(\C)[C@@H]1OC(N)=O)C2=O`: the IC50 in the data set with SK-BR-3 came out at 2120 nM; in the data set on SK-OV-3, 2090 nM; in the data set on PC-3 it was 2150 nM. Besides, the IC50 at 72 h in data set [1] was determined as 3820 nM. The values for the selectivity ratio in data set [3], in data set [4] and in data set [5] were 1.8, 1.83 and 1.78, respectively.

In the case of `CO[C@H]1/C=C\C=C(/C)C(=O)NC2=CC(=O)C(NCc3cn([C@@H]4O[C@H](COC(C)=O)[C@H](OC(C)=O)[C@H](OC(C)=O)[C@H]4OC(C)=O)nn3)=C(C[C@@H](C)C[C@H](OC)[C@H](O)[C@@H](C)/C=C(\C)[C@@H]1OC(N)=O)C2=O`, the IC50 in the data set on SK-BR-3 worked out at 770 nM; with SK-OV-3, 780 nM; with PC-3, 910 nM. For the same compound, the IC50 at 72 h in data set [1] worked out at 970 nM. Moreover, the selectivity ratio in data set [3] was 1.29; in data set [4], 1.24; in data set [5], 1.07.

As for `CO[C@H]1/C=C\C=C(/C)C(=O)NC2=CC(=O)C(NCc3cn(Cc4ccsc4Br)nn3)=C(C[C@@H](C)C[C@H](OC)[C@H](O)[C@@H](C)/C=C(\C)[C@@H]1OC(N)=O)C2=O`, the IC50 in the data set with SK-BR-3 is 1050 nM; in the data set on SK-OV-3 it was 1020 nM; with PC-3, 1130 nM. Besides, the 50% inhibitory concentration (IC50) at 72 h in data set [1] is 1730 nM. Besides, the selectivity ratio in data set [3] is 1.65; in data set [4], 1.7; in data set [5], 1.53.

On to `CO[C@H]1/C=C\C=C(/C)C(=O)NC2=CC(=O)C(NCc3cn([C@@H]4O[C@H](CO)[C@@H](O)[C@H](O)[C@H]4O)nn3)=C(C[C@@H](C)C[C@H](OC)[C@H](O)[C@@H](C)/C=C(\C)[C@@H]1OC(N)=O)C2=O`, for which the IC50 with SK-BR-3 is 740 nM; in the data set on SK-OV-3 it was 540 nM; with PC-3, 600 nM. For the same compound, the IC50 at 72 h in data set [1] is 1010 nM. The selectivity ratio in data set [3] stood at 1.36; in data set [4], 1.87; in data set [5], 1.68.

Values taken from ChEMBL document CHEMBL5370558, “Modifications of geldanamycin via CuAAC altering affinity to chaperone protein Hsp90 and cytotoxicity” (Eur J Med Chem, 2023).
